{"source": "patent US12454675B2", "about": "“Method of increasing protein yield in mammalian cells in serum-free culture medium” (AGENCY FOR SCIENCE, TECHNOLOGY AND RESEARCH, priority 2016, dated 2025)", "assay_type_in_all_cases": "cell-based, Chinese Hamster", "key": {"[1]": {"test_system": "SH87 cells", "assay": "Specific maltose consumption rate, Monod model", "conditions": "non-linear regression", "procedure": "Specific substrate consumption rate (qs) between culture times t1 and t2 was determined by plotting substrate concentration (S) vs IVCD according to Equation 4. −qs=(St2−St1)/IVCD St2=−qs×IVCD+St1 Equation 4\nSpecific substrate consumption rate (qs) was fitted into a Monod model according to Equation 5, where qs_max is the maximum specific substrate consumption rate, S is the substrate concentration, and Ks is the affinity constant. qs=(qs_max×S)/(Ks+S) Equation 5\nTo characterize the maltose metabolism in the maltose supplemented cultures, the specific maltose consumption rates were obtained from plots of maltose concentrations against cumulative integral viable cell densities (IVCD) according to Equation 4. […] Comparing with published specific monosaccharide consumption rates using 3.6 g/l of monosaccharides (Altamirano et al., 2000), the maximum specific maltose consumption rate determined here is similar to the specific consumption rates of fructose (0.21 ng/cell/day) and galactose (0.21 ng/cell/day) while being lower than the measured specific consumption rates of glucose (0.76 ng/cell/day) and mannose (0.88 ng/cell/day). […] While the present inventors noted that these parameters can be more accurately determined in continuous cultures, it may be practically challenging at low maltose concentrations since growth rates will be low."}, "[2]": {"test_system": "SH87 cells", "assay": "SH87 fed-batch bioreactor cultures in PFCDM", "procedure": "For each culture condition to be tested, SH87 was scaled up in PFCDM and inoculated into duplicate two (2) liter glass bioreactors (Sartorius, Germany) at a viable cell density of 3×10^5 cells/ml. Culture temperature, pH, dissolved oxygen and stir rate were maintained at 37° C., 7.1, 50% and 120 rpm respectively. The culture set points for glucose and glutamine were 0.5 g/l and 0.5 mM respectively, and predictive feeding was used to maintain these concentration levels by the addition of a concentrated DMEM-based protein-free feed and a 150 g/l glucose solution. Cell culture samples were collected and analyzed daily throughout the duration of the growth profile experiment until culture viabilities fell below 50%. When necessary, culture supernatant samples were stored at −20° C. for further analysis.\nSince fed-batch culture is a popular mode for the manufacturing of monoclonal antibodies, the use of maltose in fed-batch cultures was evaluated. […] As such, it was evaluated whether maltose can be used to supplement glucose in fed-batch cultures to drive the cells towards a slower but more efficient metabolism: Using a common glucose concentration setpoint of 0.5 g/l, SH87 in media supplemented with 4 g/l glucose and 20 g/l maltose was fed daily with 50% of its calculated glucose requirement, while cultures of the same cells in media containing 4 g/l glucose was fed daily with 100% of its calculated glucose requirement. Duplicate bioreactor cultures were performed for each condition and the growth, biochemical and IgG titer profiles of these cultures were plotted in FIG. 7.\nAdditionally, the present disclosure investigated whether maltose supplementation in the feed medium can have further effect on fed-batch cultures with maltose-supplemented base medium. Using a common glucose concentration setpoint of 0.5 g/l, SH87 in media supplemented with 4 g/l glucose and 20 g/l maltose was fed daily with 50% of its calculated glucose requirement, using a sugar feed consisting of only glucose, or of glucose and maltose in a 1:1 ratio."}, "[3]": {"test_system": "CHO-K1 cells", "assay": "Shake flask batch growth and biochemical profiles of CHO-K1 in maltose or glucose medium", "procedure": "Viable cell density and culture viability were determined by Trypan blue dye exclusion method using Vi-Cell XR Cell Viability Analyzer (Beckman Coulter, Brea, CA) according to manufacturer's instructions. For biochemical and other cell culture parameter analyses, 1 ml of culture sample was centrifuged at 8000 g for 10 minutes to obtain clarified supernatant. Concentrations of ammonium, glutamine, glucose and lactate were analyzed by the BioProfile 100 Plus (Nova Biomedical, Waltham, MA). Osmolality was measured using a vapor pressure osmometer (Vapro 5520, Wescor, Logan, UT), according to manufacturer's instructions. Maltose concentration was quantified using Maltose Colorimetric/Fluorometric Assay Kit (Biovision, Milpitas, CA), according to manufacturer's instructions. […] Cells were cultivated in single-use Erlenmeyer flasks (Corning), with a cell seeding density of 0.3×10^6 cells/ml in duplicates. Cell culture samples were collected and analyzed daily throughout the duration of the growth profile experiment until culture viabilities fell below 50%. When necessary, culture supernatant samples were stored at -20° C. for further analysis. […]0)=μt Equation 1"}, "[4]": {"test_system": "CHO-K1 cells", "assay": "CHO-K1 cells in PFCDM with increasing concentration of maltose", "conditions": "maltose-adapted CHO-K1, PFCDM, maltose 10 g/l to 40 g/l", "excerpt": "CHO-K1 cells adapted to PFCDM with 10 g/L of maltose was cultivated in PFCDM with 10, 20, 30 and 40 g/L maltose in batch shake flask cultures. The cultures were monitored till culture viabilities were lower than 50%, to obtain their (A) Viable cell densities (lined marker) and culture viabilities (marker only), and (B) Osmolality, (C) Glucose, (D) Lactate, (E) Glutamine and (F) Ammonium profiles. […] Even with the higher maltose concentration, lactate concentration was kept at a low level till viability started to drop on Day 6.\nExamining glutamine consumption, while this was slower in the maltose culture compared to the glucose culture (FIG. 2D), it was likely due to the slower growth of the maltose culture. […] This hypothesis is supported by the ammonium production profiles: while the specific ammonium production rate was initially similar for both cultures, that for the glucose culture slowed considerably from Day 2 (FIG. 2G) to attain a final ammonium concentration of 0.14 g/l (FIG. 2E), whereas the specific ammonium production rate of the maltose culture continued at a similar rate till Day 5 to attain a higher final ammonium concentration of 0.20 g/1. […]"}, "[5]": {"conditions": "CHO-K1 maltose culture, 3.6 g/l"}}, "data": [{"smiles": "OC[C@H]1O[C@H](O[C@H]2[C@H](O)[C@@H](O)[C@H](O)O[C@@H]2CO)[C@H](O)[C@@H](O)[C@@H]1O", "note": "[maltose]", "values": [{"measurement": "affinity constant (Ks)", "setting": "[1]", "result": 7.03, "unit": "g/L"}, {"measurement": "maximum specific maltose consumption rate (qs_max)", "setting": "[1]", "result": 0.257, "unit": "ng/cell/day"}, {"measurement": "effect of additional maltose in the feed medium on cell growth, viability, glutamine, osmolality and IgG titer profiles", "setting": "[2]; base 4 g/l glucose + 20 g/l maltose, feed glucose and maltose 1:1 vs glucose only", "result": "no additional effect"}, {"measurement": "improvement in maximum IgG titers vs glucose-only fed-batch cultures", "setting": "[2]; fed-batch bioreactor", "result": 23, "unit": "%"}, {"measurement": "improvement in specific IgG productivities vs glucose-only fed-batch cultures", "setting": "[2]; fed-batch bioreactor", "result": 55, "unit": "%"}, {"measurement": "culture viabilities maintained over a longer period of time compared to glucose", "setting": "[3]; CHO-K1, 3.6 g/l sugar", "result": "greater than 80%"}, {"measurement": "day on which glutamine was completely utilized", "setting": "[3]; CHO-K1, 3.6 g/l sugar", "result": 5, "unit": "days"}, {"measurement": "final ammonium concentration", "setting": "[3]; CHO-K1, 3.6 g/l sugar", "result": 0.20, "unit": "g/L"}, {"measurement": "doubling time", "setting": "[3]; CHO-K1, 3.6 g/l sugar, viable cell density data till Day 4", "result": 53.7, "unit": "h"}, {"measurement": "maximum viable cell density", "setting": "[3]; CHO-K1, HyQ PF-CHO, 3.6 g/l sugar, initial 0.3×10^6 cells/ml, maltose Day 7, glucose Day 6", "result": "1.4×10^6 cells/ml"}, {"measurement": "glucose in the culture medium", "setting": "[3]; [5]", "result": "not detectable"}, {"measurement": "lactate production", "setting": "[3]; [5]", "result": "lack of lactate production"}, {"measurement": "proliferation with increased concentrations of maltose", "setting": "[4]", "result": "proliferated faster"}]}]}
